Earlier results as cited in patent publication US20090312295A1, “Second line treatment of metastatic hormone refractory prostate cancer using satraplatin” (priority 2006, published 2009).

Tests used:
[1] = sequential schedules
LNCaP cells = conditions: 42 hours, 12 μM satraplatin or 0.7 μM JM-118
[2] = system: human tumor cell lines with different sensitivities to cisplatin
[3] = system: prostate cancer cell lines PC-3, DU 145 and LNCaP
[4] = system: hormone refractory prostate cancer; conditions: symptomatic patients; mitoxantrone combined with prednisone versus prednisone alone
[5] = system: hormone refractory carcinoma of the prostate
[6] = system: hormone refractory prostate cancer; conditions: estramustine combined with either paclitaxel or docetaxel
[7] = system: hormone refractory prostate cancer; conditions: first-line HRPC
[8] = system: ovarian cancer carcinoma cell lines; conditions: panel of ovarian carcinoma cell lines
[9] = system: mismatch repair-proficient and mismatch repair-deficient cell lines
[10] = system: H460 human non-small cell lung carcinoma (NSCLC); conditions: H460 xenografted in nude mice
[11] = system: Schizosaccharomyces pombe; conditions: panel of 23 yeast strains, mutants in genes affecting radiation response
[12] = system: hormone refractory prostate cancer; conditions: 120 mg/m^2 per day for 5 days every 4 weeks, single agent
[13] = system: prostate carcinoma models; conditions: in vivo
[14] = system: human ovarian carcinoma xenograft models; conditions: oral versus intravenous cisplatin and carboplatin

Compound: N.NC1CCCCC1.[Cl-].[Cl-].[Pt+2] [JM118, reference compound]
- in vitro anticancer activity in combination with erlotinib, paclitaxel or 5-FU [1]: synergistic in vitro anticancer activity
- PSA mRNA transcription (LNCaP cells): 90 % of control
- cell number (LNCaP cells): 61 % of control
- secreted PSA protein level (LNCaP cells): 61 % of control
- circumvention of resistance to cisplatin [2]: can partially circumvent intrinsic and acquired resistance to cisplatin
- result of treatment of prostate cancer cells [3]: tumor cell kill

Compound: O=C1c2c(O)ccc(O)c2C(=O)c2c(NCCNCCO)ccc(NCCNCCO)c21 [Mitoxantrone]
- palliative response using pain response criteria [4]: 29%

Compound: N.N.[Cl][Pt][Cl] [cisplatin]
- response rates to single agent ([5]; measurable disease, several trials): generally low or poor
- efficacy in patients with metastatic prostatic carcinoma ([5]; phase II trial (Qazi & Khandekar)): not effective

Compound: C[C@]12CC[C@@H]3c4ccc(OC(=O)N(CCCl)CCCl)cc4CC[C@H]3[C@@H]1CC[C@@H]2O [estramustine, Estramustine]
- patients with decrease of >50% in serum PSA levels [6]: > 50%
- tolerability [6]: well tolerated

Compound: C[C@]12C=CC(=O)C=C1CC[C@@H]1[C@@H]2C(=O)C[C@@]2(C)[C@H]1CC[C@]2(O)C(=O)CO [prednisone alone, prednisone]
- Progression-free survival [7]: 2.5 months
- patients with >50% decrease in prostate specific antigen (PSA) [7]: 8.7%
- Median overall survival ([7]; 50 randomized patients): 11.9 months
- palliative response using pain response criteria [4]: 12%

Compound: CC(=O)[O][Pt]([NH2])([Cl])([Cl])([NH]C1CCCCC1)[O]C(C)=O [satraplatin, bis(acetato) ammine dichloro (cyclohexylamine) platinum (IV)]
- cytotoxicity compared with cisplatin [8]: significantly more cytotoxic than cisplatin
- sensitivity, mismatch repair-proficient versus -deficient cell lines [9]: no difference in sensitivity
- radiopotentiation (human lung cancer cells): can potentiate the effects of radiation
- antitumor activity of combination with docetaxel [10]: synergistic antitumor activity
- antitumor activity of combination with paclitaxel [10]: antitumor activity
- PSA mRNA transcription (LNCaP cells): 90 % of control
- cell number (LNCaP cells): 56 % of control
- secreted PSA protein level (LNCaP cells): 58 % of control
- change in sensitivity of mutants [11]: none of the mutants demonstrated an appreciable change in sensitivity
- circumvention of resistance to cisplatin [2]: can partially circumvent intrinsic and acquired resistance to cisplatin
- platinum-DNA adduct levels compared to cisplatin ([2]; equimolar basis): lower levels of platinum-DNA adducts
- result of treatment of prostate cancer cells [3]: tumor cell kill
- sensitivity of cell lines to satraplatin ([3]; androgen-insensitive PC-3 and DU 145 versus androgen-sensitive LNCaP): more sensitive
- activity in HRPC [12]: moderate activity
- toxicity [12]: significant treatment-related toxicities
- antitumor activity of combination with docetaxel [13]: synergistic antitumor activity
- antitumor activity of combination with paclitaxel [13]: synergistic antitumor activity
- efficacy of orally administered satraplatin [14]: comparable to that of cisplatin and carboplatin administered intravenously
